Test results as given in patent US8697715B2, “Serine/threonine kinase inhibitors” (Array BioPharma Inc., priority 2012, dated 2014).

System: PMA-stimulated P90RSK(Ser380) phosphorylation in HepG2 cells
Assay: Cellular P90RSK(Ser380) Phosphorylation Assay
Format: cell-based
Settings: Homo sapiens, read-out: Biological Example 2 IC50 (nM), 1.5 hours compound incubation, PMA 100 ng/mL 30 minutes, normalized to GAPDH, single assay or mean of multiple assays
Description: Inhibition of PMA-stimulated P90RSK(Ser380) phosphorylation was determined by the following in vitro cellular mechanistic assay, which comprises incubating cells with a compound for 1.5 hours and quantifying fluorescent pP90RSK(Ser380) signal on fixed cells and normalizing to GAPDH signal.
HepG2 cells were obtained from ATCC and grown in DMEM supplemented with 10% fetal bovine serum. Cells were plated in 96-well plates at 35,000 cells/well and allowed to attach overnight at 37° C./5% CO2. Diluted compounds were then added at a final concentration of 0.5% DMSO. After 1.5 hours compound incubation, cells were stimulated with the addition of phorbol 12-myristate 13-acetate (“PMA”) at a final concentration of 100 ng/mL; the PMA stimulation was a 30-minute incubation at 37° C./5% CO2. After the 30-minute PMA stimulation, cells were washed with phosphate buffered saline (“PBS”) and fixed in 3.7% formaldehyde in PBS at room temperature for 15-20 minutes. This was followed by another wash in PBS and then permeabilization in 100% MeOH at room temperature for 10-15 minutes. Following the permeabilization incubation, cells were washed in PBS/0.05% Tween-20, followed by a block in Odyssey blocking buffer (LI-COR Biosciences) for at least 1 hour. […] Both secondary antibodies were used at a 1:1000 dilution. Cells were then washed and analyzed for fluorescence at both wavelengths using the Odyssey Infrared Imaging System (LI-COR Biosciences). Phosphorylated P90RSK(Ser380) signal was normalized to GAPDH signal.

Row | SMILES | IC50 [nM]
1 | CC(C)(N)C(=O)OC[C@H](c1ccc(Cl)c(F)c1)n1ccc(-c2ccnc(NC3CCOCC3)n2)cc1=O [Example 290, (S)-2-(4-chloro-3-fluorophenyl)-2-(2-oxo-4-(2-((tetrahydro-2H-pyran-4-yl)amino)pyrimidin-4-yl)pyridin-1(2H)-yl)ethyl 2-amino-2-methylpropanoate] | 26.5
2 | O=c1cc(-c2ccnc(NC3CCOCC3)n2)ccn1[C@H](CO)c1cc2cc(F)ccc2[nH]1 [Example 291, (S)-1-(1-(5-fluoro-1H-indol-2-yl)-2-hydroxyethyl)-4-(2-((tetrahydro-2H-pyran-4-yl)amino)pyrimidin-4-yl)pyridin-2(1H)-one] | 55.9
3 | CC(=O)OC[C@H](c1ccc(Cl)c(F)c1)n1ccc(-c2ccnc(Nc3ccnn3C)n2)cc1=O [Example 293, (S)-2-(4-chloro-3-fluorophenyl)-2-(4-(2-((1-methyl-1H-pyrazol-5-yl)amino)pyrimidin-4-yl)-2-oxopyridin-1(2H)-yl)ethyl acetate] | 16.8
4 | C=C(c1ccc(Cl)c(F)c1)n1ccc(-c2ccnc(Nc3ccnn3CC)n2)cc1=O [Example 295, 1-(1-(4-chloro-3-fluorophenyl)vinyl)-4-(2-((1-ethyl-1H-pyrazol-5-yl)amino)pyrimidin-4-yl)pyridin-2(1H)-one] | 204
5 | NC[C@H](c1ccc(Cl)c(F)c1)n1ccc(-c2ccnc(NC3CCOCC3)n2)cc1=O [Example 305, (S)-1-(2-amino-1-(4-chloro-3-fluorophenyl)ethyl)-4-(2-((tetrahydro-2H-pyran-4-yl)amino)pyrimidin-4-yl)pyridin-2(1H)-one] | 53
6 | O=c1cc(-c2ccnc(NC3CCOCC3)n2)ccn1[C@H](COP(=O)(O)O)c1ccc(Cl)c(F)c1 [Example α, (S)-2-(4-chloro-3-fluorophenyl)-2-(2-oxo-4-(2-((tetrahydro-2H-pyran-4-yl)amino)pyrimidin-4-yl)pyridin-1(2H)-yl)ethyl dihydrogen phosphate] | 955
7 | O=c1cc(-c2ccnc(NC3CCOCC3)n2)ccn1[C@H](COCOP(=O)(O)O)c1ccc(Cl)c(F)c1 [Example β, (S)-(2-(4-chloro-3-fluorophenyl)-2-(2-oxo-4-(2-((tetrahydro-2H-pyran-4-yl)amino)pyrimidin-4-yl)pyridin-1(2H)-yl)ethoxy)methyl dihydrogen phosphate] | 99.6
